In patent US20170202838A1, “IMMUNOMODULATOR” (TAIHO PHARMACEUTICAL CO., LTD., priority 2015, published 2017):

Legend:
Format in all cases: cell-based
[1] = test system: human peripheral blood mononuclear cells; assay: Induction of IL-2 production of PHA-M-stimulated human peripheral blood mononuclear cells (Example 2); details: PHA-M 5 μg/ml, 3 days, ELISA (FIG. 3)
Experimental: Human peripheral blood mononuclear cells were introduced into a human complete medium (i.e., RPMI-1640 supplemented with 10% heat-inactivated FBS, 100 U/ml penicillin, and 100 μg/ml streptomycin) to prepare a cell suspension (1×10^6 cells/ml). Phytohemagglutinin M (PHA-M) was added thereto to the final concentration of 5 μg/ml, and Compound (I) or an EGFR tyrosine kinase inhibitor (AZD9291) was further added thereto to each final concentration. This culture solution was seeded in a 96-well plate at 200 μl/well and then cultured in an incubator at 37° C. in the presence of 5% CO2 for 3 days. The culture supernatant was recovered, and the concentration of IL-2 therein was measured via ELISA using the anti-hIL-2 antibody.

[2] = test system: human peripheral blood mononuclear cells; assay: Induction of cytokine production in human peripheral blood mononuclear cells, Bio-Plex Pro cytokine assay (Example 7); details: 2 days culture, no stimulant (FIG. 9)
Experimental: Human peripheral blood mononuclear cells were introduced into a human complete medium (i.e., RPMI-1640 supplemented with 10% heat-inactivated FBS, 100 U/ml penicillin, and 100 μg/ml streptomycin) to prepare a cell suspension (1×10^5 cells/ml). Compound (I), the EGFR tyrosine kinase inhibitor (i.e., AZD9291 or Erlotinib), or a cytokine-inducing positive control (i.e., Imiquimod) was added to the cell suspension. A control group to which the EGFR tyrosine kinase inhibitor and others were not added was also prepared (i.e., the non-treatment group). The culture solution was cultured in an incubator at 37° C. in the presence of 5% CO2 for 2 days. The culture supernatant was recovered, and various types of cytokines were inspected with the use of the Bio-Plex Pro human cytokine assay kit.

mouse spleen cells = assay: Excitation of T cell growth, CFSE flow cytometry of CD4- and CD8-positive spleen cells (Example 4); details: 0.1 μM, 3 days culture of stimulated spleen cells
Experimental: The mouse spleen was extracted, grinded with glass slides with frosted areas, and then subjected to hemolysis, so as to obtain spleen cells. The spleen cells were suspended in 5 ml of a staining buffer (0.5% BSA, 2 mM EDTA, PBS(-)), and the cells were stained with 5 μM CFSE (5-carboxyfluorescein succinimidyl ester). Thereafter, the stained cells were washed with an ice-cooled complete medium (RPMI-1640). The CFSE-stained spleen cells were introduced into a complete medium (i.e., RPMI-1640 supplemented with 10% heat-inactivated FBS, 100 U/ml penicillin, 100 μg/ml streptomycin, and 55 μM 2-mercaptoethanol) to prepare a cell suspension (1×10^6 cells/ml), the anti-CD3 antibody and the anti-CD28 antibody were added at 1 μg/ml and 1 μg/ml, respectively, and Compound (I) adjusted to various concentrations or the EGFR tyrosine kinase inhibitor (i.e., AZD09291, Erlotinib, Co1686 (Rociletinib), Ibrutinib, Sunitinib, or Dasatinib) was added at 0.1 μM. […] These culture solutions were seeded in a 96-well plate at 200 μl/well and then cultured in an incubator at 37° C. in the presence of 5% CO2 for 3 days. The cells were recovered and stained with the anti-CD4 antibody and the anti-CD8 antibody. The amounts of CFSE in CD4- and CD8-positive cells were analyzed via flow cytometry.
Once CFSE is incorporated into a cell, the amount thereof is kept constant in the cell. Since the amount of CFSE per cell decreases by half upon cell division, according to flow cytometric analysis, the intensity of CFSE staining is attenuated and is shifted toward left (i.e., lower level) in the chart, as cell division proceeds. […] In the case of the samples to which other types of EGFR tyrosine kinase inhibitors had been added, in contrast, no such activity for enhancing the cell growth was observed.

SMILES	concentration of IL-2 produced by human peripheral blood mononuclear cells in the culture supernatant [1]	cytokine concentrations relative to the non-treatment group [2]	cell death (mouse spleen cells)
C=CC(=O)Nc1cc(Nc2nccc(-c3cn(C)c4ccccc34)n2)c(OC)cc1N(C)CCN(C)C [AZD9291, reference compound]	substantially no activity for inducing IL-2 production	such induction was not observed	
Cc1nc(Nc2ncc(C(=O)Nc3c(C)cccc3Cl)s2)cc(N2CCN(CCO)CC2)n1 [Dasatinib, reference compound]			cell death was induced
C#Cc1cccc(Nc2ncnc3cc(OCCOC)c(OCCOC)cc23)c1 [Erlotinib]		such induction was not observed	
